The values below come from EP0168309A1, “Isoxazoloquinolinone derivatives, process and intermediates for their preparation, use as medicaments and compositions containing them” (ROUSSEL-UCLAF, priority 1984, dated 1986).

One series deals with souris. Put plainly: Acute toxicity, oral administration in mice (DL0). The format is in vivo. The settings on record: maximal dose causing no mortality in 8 days, mouse. The source says: On a évalué les doses létales DLO des différents composés testés après administration par voie orale chez la souris.
On appelle DLO la dose maximale ne provoquant aucune mortalité en 8 jours.

Series [1] deals with taux sérique de corticostérone. Put plainly: Action on serum corticosterone level after noise stress. The series is classed as in vivo. The settings on record: Rattus norvegicus; dose reducing by 50% the increase of serum corticosterone; oral route, 1 hour before stress; rats; read-out: DE50 (the source's name). The source says: Des lots de 5 rats sont constitués la veille de l'essai et placés dans un pièce au calme. Les composés sont administrés par voie orale le lendemain entre 8 et 9 heures du matin. Une heure après, le stress est appliqué : il consiste à changer les animaux de cage, à les placer dans une pièce où un poste de radio fonctionne bruyamment (90 décibels), puis 1/2 heure plus tard, à leur faire une piqûre intrapéritonéale sans injection. Dix minutes après celle-ci, les rats sont anesthésiés a l'halothane et des échantillons de sang sont prélevés par décapitation. Les taux de corticostérone sérique sont alors déterminés.
Les résultats sont exprimés en DE50, c'est-à-dire en dose de composé testé qui réduit de 50% l'augmentation du taux de corticostérone sérique chez les animaux traités par rapport aux animaux témoins.

The target in series [2] is récepteurs des benzodiazépines. Put plainly: Affinity for benzodiazepine receptors (3H diazepam binding, rat cortex membranes). Also noted: species or system rats. The settings on record: concentration inhibiting 50 % of specific binding of 3H diazepam (10^-9M), 30 minutes at 0°C, read-out: C. I. 50 (the source's name). The method, then:
La technique est inspirée de celle de Möhler et Okada : Science, Vol 198 p.849-851 (1977).
On homogénéise au vingtième (poids/volume) dans le sucrose 0,32 M, les cortex prélevés sur des cerveaux de rats mâles pesant 150 g en moyenne. Après centrifugation de l'homogénat à 1000 g pendant 10 minutes à 0°C, le surnageant est centrifugé à 30 000 g pendant 20 minutes à 4°C. Le culot est mis en suspension dans 20 volumes de tampon Tris HCl 50mM pH 7,4 et centrigué à 30 000 g pendant 20 minutes à 4°C. Le nouveau culot obtenu est mis en suspension dans 50 ml de tampon Krebs Tris HCl pH 7,4.
On fait ensuite incuber pendant 30 minutes à 0°C, 2 ml de suspension en présence de 3H diazepam à la concentration 10^-9M : • i) seule, • ii) avec des concentrations croissantes du produit à tester ou, • iii) pour déterminer la fixation non spécifique, avec du diazepam non radioactif à la concentration 10^-6M.
Les suspensions incubées sont filtrées sur Whatman GF/C et les filtres sont lavés par deux fois 5 ml de tampon Krebs Tris HCl pH 7,4 à 0°C.
La radioactivité des filtres est mesurées par scintillation liquide.
L'activité du produit est exprimée en C. I. 50 : concentration inhibant 50 % de la liaison spécifique de ^3H diazepam.

As for `O=c1c2cnc3ccc(C(F)(F)F)cc3c2on1-c1ccccc1` [Exemple 5, 8-trifluorométhyl 2-phényl isoxazolo (4,5-c) quinoléin-3-(2H)-one], the DL0 in the series on souris is reported as at least 200 mg/kg.
Consider `O=c1c2cnc3ccc(F)cc3c2on1-c1ccccc1` [Exemple 2, 8-fluoro 2-phénylisoxazolo (4,5-c) quinoléin-3-(2H)-one], for which the ED50 in series [1] was under 50 mg/kg. In addition, in series [2], the IC50 was 400 nM. In addition, the DL0 with souris was at least 400 mg/kg.
On to `COc1ccc2ncc3c(=O)n(-c4ccccc4)oc3c2c1` [Exemple 4, 8-méthoxy 2-phényl isoxazolo (4,5-c) quinoléin-3-(2H)-one], for which the ED50 in series [1] was under 100 mg/kg. The IC50 in series [2] was found to be 2460 nM. This compound registered a DL0 in the series on souris of 200 mg/kg.
For the compound `O=c1c2cnc3ccc(Cl)cc3c2on1-c1ccccc1` [Exemple 7, 8-chloro 2-phényl isoxazolo (4,5-c) quinoléin-3-(2H)-one], the DL0 in the series on souris is given as at least 100 mg/kg.
Consider `O=c1c2cnc3ccccc3c2on1-c1ccccc1` [Exemple 1, 2-phényl isoxazolo (4,5-c) quinoléin-3 (2H) one], for which the IC50 in series [2] amounted to 120 nM. This compound returned a DL0 in the series on souris of at least 400 mg/kg.
Compound `COc1ccc2c(c1)ncc1c(=O)n(-c3ccccc3)oc12` [Exemple 3, 7-méthoxy 2-phénylisoxazolo (4,5-c) quinoléin-3-(2H)-one] returned a DL0 in the series on souris of at least 200 mg/kg.
